According to USRE35224E (The Board of Trustees of the Leland Stanford Junior …, priority 1993, dated 1996):
pKi: −log10 of the molar value. Entries after “also recorded” stand apart in the source; their conditions may differ.

What was measured:
[1] = target: T1, guinea pig myocardial adenylate cyclase (Cavia porcellus, UniProt P47747); experiment: Guinea pig myocardial adenylate cyclase assay; format: biochemical; conditions: for Activity on guinea pig myocardium (in words): adenylate cyclase
T1 construct: histamine-stimulated adenylate cyclase with GPP(NH)P
T1 sequence (P47747 whole entry): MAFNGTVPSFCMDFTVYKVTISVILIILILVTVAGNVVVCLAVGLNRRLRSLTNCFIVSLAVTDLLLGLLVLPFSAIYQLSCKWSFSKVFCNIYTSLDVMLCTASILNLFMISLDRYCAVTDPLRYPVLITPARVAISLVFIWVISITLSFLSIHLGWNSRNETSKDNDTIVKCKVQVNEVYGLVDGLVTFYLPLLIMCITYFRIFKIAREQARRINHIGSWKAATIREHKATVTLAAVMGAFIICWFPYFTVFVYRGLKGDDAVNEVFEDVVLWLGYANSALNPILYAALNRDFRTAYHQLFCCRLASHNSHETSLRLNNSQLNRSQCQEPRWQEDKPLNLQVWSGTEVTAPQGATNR
Description: Male, partly albino, guinea pigs (600 g average weight) were killed by a blow to the head. The hearts were excised and immediately immersed in ice cold oxygenated Tyrode's solution. Both ventricles were dissected free and placed in 250 mM sucrose, 5 mM Tris, 1 mM EDTA, pH 7.45. The tissue was minced with a screen, and was then homogenized with 3 consecutive 5 sec bursts of a Polytron (Brinkman Instruments, Inc., Westbury, NY) at a setting of 11. The homogenate was then centrifuged at 1085×g for 20 min. The pellet was resuspended and recentrifuged twice. The final suspension was filtered through four layers of gauze. Adenylate cyclase was assayed by the method of Salomon et al., Anal. Biochem. (1974) 58:541 as modified by Bristow et al., Mol Pharmacol. (1982) 21:671. Enzyme protein (75-250 μg) was added to a reaction mixture that consisted of 0.1 mM Mg ATP, 0.5 mM MgCl2, 10 mM phosphocreatine, 14.5 μg of creatine kinase (1381 U/mg), 100 mM
The final reaction volume before addition of α-^32 P!ATP was 225 μl. Reaction tubes were stored in cryogenic racks (Kryorack, Isolab, Inc. Akron, OH) at 0° C.
The reaction mixture was pre-warmed in a shaking water bath at 30° C. for 5 min after which 25 μl ([…]) of α-^32 P!ATP (250-500 Ci/mM) was added to label the ATP pool. The assay time was 20 min, the time needed for measurable stimulation of adenylate cyclase. The ^32 P reaction was stopped by the addition of 750 μl of 1% sodium dodecysulfate. ^32 P-labelled cyclic AMP was then isolated by the dual Dowex-alumina column method of Salomon et al., supra. α-^32 P!ATP (New England Nuclear Corporation, Boston, MA) that gave reagent blanks of 50 cpm was purified on Dowex columns as described by Salomon et al., supra.

natural suppressor cells [2] = target: T2, natural suppressor cells (Mus musculus, UniProt P97292); experiment: Blocking histamine effects in natural suppressor cells (H2 antagonism); format: cell-based, mouse (BALB/c); conditions: for Blockade of histamine mediated accumulation of cAMP: NS cells
T2 construct: cAMP accumulation
T2 sequence (P97292 whole entry): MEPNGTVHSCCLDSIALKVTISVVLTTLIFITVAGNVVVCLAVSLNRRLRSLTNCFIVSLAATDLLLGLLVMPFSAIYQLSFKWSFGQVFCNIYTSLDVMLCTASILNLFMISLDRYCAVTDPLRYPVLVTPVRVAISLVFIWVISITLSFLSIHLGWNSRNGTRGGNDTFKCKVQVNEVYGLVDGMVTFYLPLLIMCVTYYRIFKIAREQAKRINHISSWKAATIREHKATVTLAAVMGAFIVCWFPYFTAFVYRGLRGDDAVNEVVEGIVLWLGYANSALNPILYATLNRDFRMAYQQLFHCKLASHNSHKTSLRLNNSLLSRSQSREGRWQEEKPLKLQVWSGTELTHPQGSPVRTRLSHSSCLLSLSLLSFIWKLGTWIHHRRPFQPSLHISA
Description: This assay was carried out in the same fashion as already described for the derivatives except that ED-90 concentration of the test compound was chosen. Cimetidine was added at the same time in concentrations ranging from 10^-4 to 10^-8 M. Alternatively, 10^-6 M cimetidine was added to 10^-3 -10^-8 M concentration of agonists.

natural suppressor cells [3] = experiment: Mixed leukocyte reaction (MLR) suppressor assay; format: cell-based, mouse (BALB/c, C57 BL/6)
Description: Responder (BALB/c) and stimulator (C57 BL/6) spleen cells (5×10^5each) were incubated with graded numbers of NS cells in 0.3 ml/well in 96-well flat bottomed microculture plates (Costar, Data Packaging, Cambridge, MA). The culture medium was supplemented with 100 U/ml penicillin, 100 ug/ml of streptomycin (both GIBCO, Grand Island, NY), and 10=pooled human serum (VSP human serum, Biocell Laboratories, Carson CA). Co-cultured cells and stimulator cells were given 3300 rad before incubation. Cultures were maintained at 37° C. in 5% CO2 for 5 or 6 days. Eighteen hr before termination, 1 μCi of ^3 H!-thymidine (specific activity […]) (New England Nuclear, Boston, MA) was added to each culture. Cells were harvested as described above. The data were expressed as the arithmetic mean of triplicate cultures. Suppression was calculated as follows: percent suppression=1-(CPM with co-cultured cells)/(CPM without co-cultured cells)×100. […] To block the effects of agonists, […] cimetidine was used as an H2 antagonist and 10^-6 M mepyramine was used as an H1 antagonist.
CO-cultured and stimulator cells were given 3300 rad in vitro just prior to incubation. […] See, Khan et al., J. Immunol. (1985) 134:4100. […] To determine the role of H1 and H2 receptors in the modification of NS cell function, the incubation with compound 10 was carried out in the presence of either cimetidine (10^-5 M) or mepyramine (10^-6 M) for four hours at 37° C. The cells were then washed extensively and later added to co-cultures with responder and stimulator cells. […] Similar experiments were carried out with each of the indicated agonists (Table 5).

natural suppressor cells [4] = target: T2, natural suppressor cells; experiment: Effects of histamine derivatives on cAMP accumulation in natural suppressor (NS) cells; format: cell-based, mouse (BALB/c); conditions: for Relative potency: NS cells, histamine = 1.0; for Activity / potency on NS cells (in words): cAMP accumulation, H2 activity
Source text: NS cells were obtained and cultured as follows: four-to six-month old BALB/c mice were anesthetized with pentobarbital and all major lymphoid organs, including all major lymph nodes, the spleen, and the thymus, were irradiated as described by Slavin et al., Science (1976) 193:1252. The skull, lungs, and hind legs were shielded with lead. The mice were given 200 rad per day, 5 times per week, to a total dose of 3400 rad. Irradiation was delivered from a single 250 kV (15A) source (Philips Medical Systems, Inc., Shelton, CT). The mice were killed between 5 and 15 days after completion of the TLI. Spleens were removed aseptically and single cell suspensions were prepared by gently pressing the spleen fragments through a nylon fiber mesh (Tetko, Inc., Elmsford, NY). These spleen cells were fed daily with tissue culture medium containing RPMI 1640, 10% FCS, 2 mM glutamine, 10% CAS and 5×10^-5 M 2-mercaptoethanol and were later cloned by limiting dilutior, The clones were maintained in RPMI 1640 medium with 10% PCS and 10% CAS.
NS cells were centrifuged and resuspended at b 1×10^6 /ml in PBS and incubated at 37° C. for 10 min with 10 mM IBMX at a final concentration at 20 μM. Alternatively the cells were resuspended in 5 mM HEPES and 1 mM MgSO4 and after five minutes were disrupted in a Dounce homogenizer. Broken cells were centrifuged at 20,000 g […] for thirty minutes and supernatant was discarded. The pellet was resuspended in Tris (pH 7.5), 5 mM HEPES and 1 mM MgSO4 and incubated with IBMX.
Cold TCA (100%) was added to a final concentration of 8% and the tubes were stored in ice. Samples were extracted 3 times with 3 volumes of ether. The ether was evaporated at 40° C. in a water bath for approximately 45 min. Acetylation of both experimental samples and cAMP standards were performed by addition of 10 μl of a mixture of triethylamine and acetic anhydride (2:1). […] The radio-immunoassay was performed as reported previously by Khan et al., J. Clin. Invest. (1985) 75:1578.

lymphoid cells = experiment: Effect of beta adrenergic blockade on cAMP accumulation in lymphoid cells; format: cell-based; conditions: 6×10^-6 M propranolol
natural suppressor cells [5] = conditions: literature, Khan et al. 1985; listed as histamine; cited from earlier work

| Structure (SMILES) | Activity on guinea pig myocardium (in words) [1] | Blockade of histamine mediated accumulation of cAMP (natural suppressor cells [2]) | H1 activity in MLR (in words) (natural suppressor cells [3]) | Relative potency (natural suppressor cells [4]) | Activity / potency on NS cells (in words) (natural suppressor cells [4]) | other results |
| --- | --- | --- | --- | --- | --- | --- |
| CCCCCC(C)NCCc1c[nH]cn1 (stereo not shown) [Compound 2] | completely inactive | failed to block histamine mediated accumulation of cAMP | no H1 activity | Inactive | impotent as H2 receptor agonists on NS cells | Activity / potency on NS cells (in words) (natural suppressor cells [4]; listed as compound 2): inactive; also recorded: nor did they stimulate intracellular accumulation of cAMP |
| CC(CCCCC(=O)Nc1ccccc1C(F)(F)F)NCCc1c[nH]cn1 (stereo not shown) [Compound 11] |  | failed to block histamine mediated accumulation of cAMP | nullified both detectable H1 and H2 activity | Inactive | impotent as H2 receptor agonists on NS cells | Activity / potency on NS cells (in words) (natural suppressor cells [4]; listed as compound 11): nullified both detectable H1 and H2 activity |
| CC(C)NCC(O)COc1cccc2ccccc12 (stereo not shown) [Propranolol] |  |  |  |  |  | Effect on histamine-induced intracellular accumulation of cAMP (lymphoid cells): had no effect on histamine-induced intracel accumulation of cAMP; Blockade of the effects of isoproterenol (lymphoid cells; 10^-5 M isoproterenol): completely blocked the effects of 10^-5 M isoproterenol |
| CCCCCC(=O)NCCc1c[nH]cn1 [Compound 3, N-Hexamido-4-2'-aminoethyl!imidazole] | completely inactive | failed to block histamine mediated accumulation of cAMP | no H1 activity | Inactive | impotent as H2 receptor agonists on NS cells | Activity / potency on NS cells (in words) (natural suppressor cells [4]; listed as compound 3): inactive; also recorded: Neither an aliphatic amide derivative of histamine (compound 3) nor the dipeptide conjugate of histamine (compound 12) altered intracellular cAMP; also recorded: nor did they stimulate intracellular accumulation of cAMP |
| NCCc1c[nH]cn1 [Histamine, 2-(4'-imidazolinyl)ethylamino] |  |  |  |  |  | Stimulation of adenylate cyclase over base levels ([1]; histamine 10^-5 M): threefold stimulation of adenylate cyclase over base levels; Effect on suppressive ability of NS cells (natural suppressor cells [5]): augmented the suppressive capacity of NS cells via H1 receptors |
| CN/C(=N/CCSCc1nc[nH]c1C)NC#N [Cimetidine, reference compound] |  |  |  |  |  | Effect on basal activity (natural suppressor cells [2]; 10^-6 M cimetidine): did not lower the basal activity; Antagonism by cimetidine (H2 antagonist) of cAMP accumulation (natural suppressor cells [2]; cimetidine 10^-5 M, compounds 6-8 at 10^-4 M, 9 at 10^-7 M): competitively blocked the actions of compounds 6-8 (used at 10^-4 M) and 9 (used at 10^-7 M); pKi (natural suppressor cells [2]; lymphoid cells, read-out: Inhibition constant): 6.37 to 6.96; Effect of antagonist on derivative-enhanced suppression in MLR (natural suppressor cells [3]; with compound 10, cimetidine 10^-5 M or mepyramine 10^-6 M, four hours at 37° C): did not alter the derivative-enhanced suppression |
| CCCCNC(=O)CCCCC(C)NCCc1c[nH]cn1 (stereo not shown) [Compound 13] | stimulated guinea pig myocardium | failed to block histamine mediated accumulation of cAMP | no H1 activity | Inactive | impotent as H2 receptor agonists on NS cells | Activity / potency on NS cells (in words) (natural suppressor cells [4]; listed as compound 13): inactive on NS cells; also recorded: nor did they stimulate intracellular accumulation of cAMP |
